Data: the supplement of paper PMC13380429

Key:
[1] = tested on: A549-ACE2 infected with SARS-CoV-2; assay: cell count relative to DMSO; higher = less toxic; settings: 24 h
Caco-2 [2] = assay: cell viability relative to DMSO; higher = less toxic; settings: 72 h
Calu-3 [3] = assay: as above; settings: 72 h
HepG2 [4] = assay: as above; settings: 72 h
U2OS [5] = assay: as above; settings: 72 h
Vero E6 [6] = assay: as above; settings: 72 h
[7] = tested on: A549-ACE2 infected with SARS-CoV-2; assay: SARS-CoV-2 infection rate relative to DMSO; higher = more infection; settings: 24 h
A549-ACE2 [8] = assay: phospholipidosis EC50; higher = less potent phospholipidosis inducer
A549-ACE2 [9] = assay: drug-induced phospholipidosis relative to tamoxifen; higher = more phospholipidosis
[10] = tested on: A549-ACE2 infected with SARS-CoV-2; assay: morphology score (similarity to uninfected cells); higher = more like uninfected cells; settings: 24 h
Caco-2 [11] = assay: relative viability EC50 (midpoint between 100% and the lowest measured viability); higher = less toxic; settings: 72 h
Calu-3 [12] = assay: as above; settings: 72 h
HepG2 [13] = assay: as above; settings: 72 h
U2OS [14] = assay: as above; settings: 72 h
Vero E6 [15] = assay: as above; settings: 72 h
Caco-2 [16] = assay: drug sensitivity score (DSS) for viability; higher = more toxic; extreme values may be limits of the assay; settings: 72 h
Calu-3 [17] = assay: as above; settings: 72 h
HepG2 [18] = assay: as above; settings: 72 h
U2OS [19] = assay: as above; settings: 72 h
Vero E6 [20] = assay: as above; settings: 72 h

O=C(NCCCN1CCC2(CC1)OCc1ccccc12)[C@H]1CCCN1Cc1ccccc1 [BAN-ORL-24]
Settings	SARS-CoV-2 infection rate [%]	cell count [%]	cell viability [%]	morphology score	phospholipidosis EC50 [µM]
A549-ACE2 [8], 24 h	–	–	–	–	9.61
A549-ACE2 [8], 48 h	–	–	–	–	9.12
A549-ACE2 [8], 72 h	–	–	–	–	15
Caco-2 [2], 1 nM	–	–	98.3	–	–
Caco-2 [2], 10 nM	–	–	103	–	–
Caco-2 [2], 100 nM	–	–	101	–	–
Caco-2 [2], 1000 nM	–	–	105	–	–
Caco-2 [2], 10000 nM	–	–	92.1	–	–
Calu-3 [3], 1 nM	–	–	104	–	–
Calu-3 [3], 10 nM	–	–	108	–	–
Calu-3 [3], 100 nM	–	–	114	–	–
Calu-3 [3], 1000 nM	–	–	105	–	–
Calu-3 [3], 10000 nM	–	–	87.1	–	–
HepG2 [4], 1 nM	–	–	97.5	–	–
HepG2 [4], 10 nM	–	–	109	–	–
HepG2 [4], 100 nM	–	–	103	–	–
HepG2 [4], 1000 nM	–	–	98.7	–	–
HepG2 [4], 10000 nM	–	–	89.2	–	–
U2OS [5], 1 nM	–	–	105	–	–
U2OS [5], 10 nM	–	–	105	–	–
U2OS [5], 100 nM	–	–	104	–	–
U2OS [5], 1000 nM	–	–	104	–	–
U2OS [5], 10000 nM	–	–	99.2	–	–
Vero E6 [6], 1 nM	–	–	94.8	–	–
Vero E6 [6], 10 nM	–	–	95.8	–	–
Vero E6 [6], 100 nM	–	–	91.6	–	–
Vero E6 [6], 1000 nM	–	–	93.2	–	–
Vero E6 [6], 10000 nM	–	–	99.5	–	–
[1], 0.3 µM	–	98	–	–	–
[1], 3 µM	–	117	–	–	–
[1], 10 µM	–	117	–	–	–
[1], 30 µM	–	123	–	–	–
[7], 0.3 µM	98	–	–	–	–
[7], 3 µM	59	–	–	–	–
[7], 10 µM	33	–	–	–	–
[7], 30 µM	18	–	–	–	–
[10], 0.3 µM	–	–	–	-0.05	–
[10], 3 µM	–	–	–	0.69	–
[10], 10 µM	–	–	–	0.81	–
[10], 30 µM	–	–	–	0.69	–

drug-induced phospholipidosis [%], A549-ACE2 [9]
Settings	0.3 µM	0.833333 µM	3.33333 µM	6.66667 µM	10 µM	30 µM
24 h	0.49	5.2	25.6	45.9	72.6	109
48 h	2.06	7.81	23.6	36.2	59.3	110
72 h	5.31	9.96	24.4	35	56.6	125

Settings	drug sensitivity score	relative viability EC50 [µM]
Caco-2 [11]	–	> 10
Caco-2 [16]	0	–
Calu-3 [12]	–	> 10
Calu-3 [17]	0	–
HepG2 [13]	–	> 10
HepG2 [18]	0	–
U2OS [14]	–	> 10
U2OS [19]	0	–
Vero E6 [15]	–	> 10
Vero E6 [20]	0	–

CC1=C(C(=O)OC2CCCCC2)C(c2ccc([N+](=O)[O-])cc2)C2=C(CC(C)(C)CC2=O)N1 (stereo not given) [FLI-06]
Settings	SARS-CoV-2 infection rate, [7] [%]	cell count, [1] [%]	cell viability, Caco-2 [2] [%]	cell viability, Calu-3 [3] [%]	cell viability, HepG2 [4] [%]	cell viability, U2OS [5] [%]	cell viability, Vero E6 [6] [%]	morphology score, [10]
1 nM	–	–	102	104	98.5	101	94.2	–
10 nM	–	–	101	106	102	100	92.2	–
0.1 µM	111	99	–	–	–	–	–	-0.06
100 nM	–	–	100	92.3	101	98.7	96.6	–
0.3 µM	100	104	–	–	–	–	–	-0.11
1 µM	101	99	–	–	–	–	–	0.02
1000 nM	–	–	98	106	108	100	103	–
3 µM	51	101	–	–	–	–	–	0.52
10000 nM	–	–	19.1	21.8	38.8	9.6	14.2	–

drug-induced phospholipidosis [%], A549-ACE2 [9]
Settings	0.3 µM	0.833333 µM	3.33333 µM	6.66667 µM	10 µM	30 µM
24 h	-0.85	2.59	9.31	10.3	4.47	3.32
48 h	3.76	2.95	-2.25	-3.67	–	–
72 h	4.47	2.39	-2.58	–	–	–

Settings	drug sensitivity score	relative viability EC50 [µM]
Caco-2 [11]	–	2.99
Caco-2 [16]	4.7	–
Calu-3 [12]	–	3.53
Calu-3 [17]	3.9	–
HepG2 [13]	–	3.72
HepG2 [18]	2.8	–
U2OS [14]	–	3.16
U2OS [19]	5.1	–
Vero E6 [15]	–	3.36
Vero E6 [20]	4.5	–

CN1CCC(CNc2ccc3ncc(-c4cccc(OC(F)(F)F)c4)n3n2)CC1 [SGI-1776]
Settings	SARS-CoV-2 infection rate [%]	cell count [%]	cell viability [%]	morphology score	phospholipidosis EC50 [µM]
A549-ACE2 [8], 24 h	–	–	–	–	5.98
A549-ACE2 [8], 48 h	–	–	–	–	11.8
A549-ACE2 [8], 72 h	–	–	–	–	7.83
Caco-2 [2], 1 nM	–	–	102	–	–
Caco-2 [2], 10 nM	–	–	98.7	–	–
Caco-2 [2], 100 nM	–	–	101	–	–
Caco-2 [2], 1000 nM	–	–	88.2	–	–
Caco-2 [2], 10000 nM	–	–	58.6	–	–
Calu-3 [3], 1 nM	–	–	95.2	–	–
Calu-3 [3], 10 nM	–	–	88.7	–	–
Calu-3 [3], 100 nM	–	–	97.4	–	–
Calu-3 [3], 1000 nM	–	–	92.8	–	–
Calu-3 [3], 10000 nM	–	–	46.2	–	–
HepG2 [4], 1 nM	–	–	101	–	–
HepG2 [4], 10 nM	–	–	95.1	–	–
HepG2 [4], 100 nM	–	–	98.7	–	–
HepG2 [4], 1000 nM	–	–	99.9	–	–
HepG2 [4], 10000 nM	–	–	37.7	–	–
U2OS [5], 1 nM	–	–	102	–	–
U2OS [5], 10 nM	–	–	95.4	–	–
U2OS [5], 100 nM	–	–	100	–	–
U2OS [5], 1000 nM	–	–	92.1	–	–
U2OS [5], 10000 nM	–	–	52	–	–
Vero E6 [6], 1 nM	–	–	104	–	–
Vero E6 [6], 10 nM	–	–	104	–	–
Vero E6 [6], 100 nM	–	–	99.5	–	–
Vero E6 [6], 1000 nM	–	–	97	–	–
Vero E6 [6], 10000 nM	–	–	55	–	–
[1], 0.1 µM	–	105	–	–	–
[1], 0.3 µM	–	95	–	–	–
[1], 1 µM	–	106	–	–	–
[1], 3 µM	–	113	–	–	–
[7], 0.1 µM	94	–	–	–	–
[7], 0.3 µM	106	–	–	–	–
[7], 1 µM	84	–	–	–	–
[7], 3 µM	48	–	–	–	–
[10], 0.1 µM	–	–	–	0.31	–
[10], 0.3 µM	–	–	–	-0.09	–
[10], 1 µM	–	–	–	0.43	–
[10], 3 µM	–	–	–	0.76	–

drug-induced phospholipidosis [%], A549-ACE2 [9]
Settings	0.3 µM	0.833333 µM	3.33333 µM	6.66667 µM	10 µM	30 µM
24 h	8.28	2.67	25.6	59.2	81	100
48 h	2.75	0.46	18.4	53.2	85.9	–
72 h	3.7	-1.53	13.6	50.1	79.6	–

Settings	drug sensitivity score	relative viability EC50 [µM]
Caco-2 [16]	3.9	–
Calu-3 [12]	–	2.09
Calu-3 [17]	4.1	–
HepG2 [13]	–	3.15
HepG2 [18]	3.4	–
U2OS [19]	3.8	–
Vero E6 [20]	2.8	–

c1cncc(CN2CCC(n3ncc4c(N5CCOCC5)nc(-c5ccc6[nH]ccc6c5)nc43)CC2)c1 [WAY-600]
Settings	SARS-CoV-2 infection rate [%]	cell count [%]	cell viability [%]	morphology score	phospholipidosis EC50 [µM]
A549-ACE2 [8], 24 h	–	–	–	–	0.65
Caco-2 [2], 1 nM	–	–	96.4	–	–
Caco-2 [2], 10 nM	–	–	95.9	–	–
Caco-2 [2], 100 nM	–	–	102	–	–
Caco-2 [2], 1000 nM	–	–	70.3	–	–
Caco-2 [2], 10000 nM	–	–	24.7	–	–
Calu-3 [3], 1 nM	–	–	101	–	–
Calu-3 [3], 10 nM	–	–	94.9	–	–
Calu-3 [3], 100 nM	–	–	95	–	–
Calu-3 [3], 1000 nM	–	–	64.8	–	–
Calu-3 [3], 10000 nM	–	–	27.3	–	–
HepG2 [4], 1 nM	–	–	106	–	–
HepG2 [4], 10 nM	–	–	112	–	–
HepG2 [4], 100 nM	–	–	98.5	–	–
HepG2 [4], 1000 nM	–	–	72.2	–	–
HepG2 [4], 10000 nM	–	–	2.5	–	–
U2OS [5], 1 nM	–	–	102	–	–
U2OS [5], 10 nM	–	–	98.1	–	–
U2OS [5], 100 nM	–	–	97.8	–	–
U2OS [5], 1000 nM	–	–	89.5	–	–
U2OS [5], 10000 nM	–	–	23	–	–
Vero E6 [6], 1 nM	–	–	103	–	–
Vero E6 [6], 10 nM	–	–	104	–	–
Vero E6 [6], 100 nM	–	–	99.4	–	–
Vero E6 [6], 1000 nM	–	–	82.2	–	–
Vero E6 [6], 10000 nM	–	–	25.2	–	–
[1], 0.1 µM	–	102	–	–	–
[1], 0.3 µM	–	101	–	–	–
[1], 1 µM	–	108	–	–	–
[1], 3 µM	–	107	–	–	–
[7], 0.1 µM	103	–	–	–	–
[7], 0.3 µM	81	–	–	–	–
[7], 1 µM	56	–	–	–	–
[7], 3 µM	35	–	–	–	–
[10], 0.1 µM	–	–	–	0.01	–
[10], 0.3 µM	–	–	–	0.46	–
[10], 1 µM	–	–	–	0.61	–
[10], 3 µM	–	–	–	0.33	–

drug-induced phospholipidosis [%], A549-ACE2 [9]
Settings	0.3 µM	0.833333 µM	3.33333 µM	6.66667 µM	10 µM	30 µM
24 h	18.3	55	79.8	55	39.9	10.3
48 h	16.7	40.1	86.2	–	–	–
72 h	17.1	29.6	–	–	–	–

Settings	drug sensitivity score	relative viability EC50 [µM]
Caco-2 [11]	–	1.19
Caco-2 [16]	8.2	–
Calu-3 [12]	–	1.01
Calu-3 [17]	8.1	–
HepG2 [13]	–	1.44
HepG2 [18]	9.5	–
U2OS [14]	–	2.07
U2OS [19]	6	–
Vero E6 [15]	–	1.59
Vero E6 [20]	6.9	–
